This note sets out measurements from US7087717B2, “Sp110, a polypeptide component of the nuclear body” (The General Hospital Corporation, priority 2000, dated 2006).

Assay [1] relates to human coronary artery smooth muscle cells (hCASMCs) and human umbilical vein endothelial cells (HUVECs). The assay can be described thus: Sp110 mRNA expression after cytokine exposure. The conditions noted are these: 200 u/ml. The class given is cell-based. How it is done: Sp110 expression was also examined in human coronary artery smooth muscle cells (hCASMCs) and human umbilical vein endothelial, cells (HUVECs) following exposure to IFNα (200 u/ml). Expression of Sp110 mRNA was induced within 4 hours and reached a maximum level between 8 and 24 hours.

For a further assay, the system named is NB4 cells. The assay can be described thus: Sp110 mRNA level by RNA blot after cellular differentiation. The class given is cell-based, human. The conditions noted are these: 1 μM, 48 hours.

Protocol for NB4 cells: To investigate the expression of Sp110 in cells of the monocyte/granulocyte lineage, RNA was prepared from the myeloid precursor cell lines HL60 and NB4 (HL60 cells are available from the American Type Culture Collection, Manassas, Va.). […] RNA was fractionated in formaldehyde-agarose gels (5 μg/lane) and equal loading of RNA was confirmed by staining 28S and 18S ribosomal RNA with ethidium bromide. […] Membranes were washed and analyzed by autoradiography. […] To examine the effect of cellular differentiation on Sp110 mRNA, NB4 cells were treated for 48 hours with all trans retinoic acid (ATRA) (1 μM).

Regarding IFNα, the “time to induction of Sp110 mRNA expression” value in assay [1] was at most 4 h.

As to `CC1=C(/C=C/C(C)=C/C=C/C(C)=C/C(=O)O)C(C)(C)CCC1` [ATRA, all trans retinoic acid], the “level of Sp110 mRNA” value in the assay on NB4 cells is given as “increased”.
